Assay results: ChEMBL document CHEMBL5360578, “Design, synthesis and evaluation of novel pyrrole-hydroxybutenolide hybrids as promising antiplasmodial and anti-inflammatory agents” (Eur J Med Chem, 2023)
Calls of active or inactive are those of the source. The calls are words filed in the database; no cut-off is given here.

How the values were obtained:
[1] = Stability in simulated gastric fluid assessed as compound remaining at pH 1.2 measured upto 120 mins by LC-MS analysis; type: ADME; details: read-out: Stability
[2] = Volume of distribution in fasted Swiss mouse at 100 mg/kg, po measured upto 48 hrs by LC-MS/MS analysis; type: ADME, organism-based; details: in vivo
[3] = test system: HEK-293T; test: Antiinflammatory activity against HEK293T cells assessed as fold increase in TNFalpha-induced NF-kappaB activity at 10 uM incubated for 1 hr followed by TNFalpha treatment for 5 hrs by luciferase based assay (reference value: 17.1); type: functional, Homo sapiens
[4] = AUC in fasted Swiss mouse at 100 mg/kg, po measured upto 48 hrs by LC-MS/MS analysis; type: ADME, organism-based; design: dose 100 mg/kg, time < 48 hrs, route po; details: in vivo
[5] = test system: Plasmodium falciparum; test: Antimalarial activity against asynchronous chloroquine-sensitive Plasmodium falciparum 3D7 assessed as parasite growth inhibition infected in erythrocytes incubated for 72 hrs by SYBR green dye based assay; type: functional, organism-based; details: 3D7, 72 h
[6] = test system: Plasmodium falciparum; test: Antimalarial activity against asynchronous chloroquine-resistant Plasmodium falciparum K1 assessed as parasite growth inhibition infected in erythrocytes incubated for 72 hrs by SYBR green dye based assay; type: functional, organism-based; details: K1, 72 h
[7] = MRT in fasted Swiss mouse at 100 mg/kg, po measured upto 48 hrs by LC-MS/MS analysis; type: ADME, organism-based; details: in vivo
[8] = Stability in simulated physiological fluid assessed as compound remaining at pH 7.4 measured upto 120 mins by LC-MS analysis; type: physicochemical; details: read-out: Stability
[9] = Half life in fasted Swiss mouse at 100 mg/kg, po measured upto 48 hrs by LC-MS/MS analysis; type: ADME, organism-based; details: in vivo
[10] = Toxicity in Swiss mouse infected with chloroquine-resistant Plasmodium yoelii N67 assessed as mean survival time at 100 mg/kg/day, po for 4 days (reference value: 7.2 +/- 1.3 day); type: organism-based; details: in vivo, 96 h, time 4 day
[11] = Stability in simulated intestinal fluid assessed as compound remaining at pH 6.8 measured upto 120 mins by LC-MS analysis; type: ADME; details: read-out: Stability
[12] = Tmax in fasted Swiss mouse at 100 mg/kg, po measured upto 48 hrs by LC-MS/MS analysis; type: ADME, organism-based; details: in vivo
[13] = test system: THP-1; test: Cytotoxicity against LPS-stimulated human THP-1 cells assessed as cell viability at 10 uM incubated for 12 hrs followed by LPS treatment measured after 4 hrs by PI staining based flow cytometry; type: functional; details: time 16.0 hrs
[14] = test system: THP-1; test: Antiinflammatory activity against human THP-1 cells assessed as inhibition of LPS-induced TNFalpha level at 10 uM incubated for 12 to 14 hrs followed by compound replenishment for 1 hr and subsequent LPS treatment for 4 hrs by ELISA assay (reference value: 93.43 %); type: functional; design: scale not given: the % may be the effect or the level left; details: time 17-19 hrs
[15] = test system: Plasmodium yoelii; test: Antimalarial activity against chloroquine-resistant Plasmodium yoelii N67 infected in Swiss mouse assessed as parasite growth suppression at 100 mg/kg/day, po for 4 days measured on day 4 relative to control; type: functional; details: time 4 day
[16] = Stability in mouse plasma assessed as compound remaining at 10 uM measured upto 120 mins by LC-MS analysis; type: ADME, cell-free; details: read-out: Stability
[17] = test system: Plasmodium yoelii; test: Antimalarial activity against chloroquine-resistant Plasmodium yoelii N67 infected in Swiss mouse assessed as parasite growth suppression at 100 mg/kg/day, po for 4 days measured on day 7 relative to control; type: functional; details: time 7 day
[18] = Cmax in fasted Swiss mouse at 100 mg/kg, po measured upto 48 hrs by LC-MS/MS analysis; type: ADME, organism-based; design: time < 48 hrs, dose 100 mg/kg, route po; details: in vivo
[19] = Clearance in fasted Swiss mouse at 100 mg/kg, po measured upto 48 hrs by LC-MS/MS analysis; type: ADME, organism-based; details: in vivo
[20] = Cytotoxicity against African green monkey Vero cells incubated for 3 days by fluorescence based assay; type: toxicity, cell-based; details: chlorocebus sabaeus, time 3 day

**Q.** With `Cc1c(C(=O)Nc2ccccc2)c(-c2ccccc2)c(-c2ccc(C(C)C)cc2)n1CC1=CC(=O)OC1O` (stereo not given) as the molecule, how does the remaining at 2 h [1] read?
**A.** 85.4%

**Q.** And the Vd [2]?
**A.** 270.36 L/kg

**Q.** And the “fold change (FC)” value [3]?
**A.** 9.4

**Q.** And the AUC at 48 h [4]?
**A.** 1730 ng·h/mL

**Q.** And the IC50 [5]?
**A.** 960 nM

**Q.** What about the IC50 [6] of the same molecule?
**A.** 1670 nM

**Q.** And the MRT [7]?
**A.** 5.34 h

**Q.** What about the remaining at 2 h [8] of the same molecule?
**A.** 94.8%

**Q.** And the half-life [9]?
**A.** 3.23 h

**Q.** And the MST [10]?
**A.** 23.4 days

**Q.** And the remaining at 2 h [11]?
**A.** 86.2%

**Q.** What about the Tmax [12] of the same molecule?
**A.** 0.25 h

**Q.** And the Activity [13]?
**A.** Active

**Q.** And the Activity [14]?
**A.** 91.44%

**Q.** What about the Activity [15] of the same molecule?
**A.** 77.79%

**Q.** What about the remaining at 2 h, 10 µM [16] of the same molecule?
**A.** 85.8%

**Q.** And the Activity [17]?
**A.** 100%

**Q.** And the Cmax [18]?
**A.** 415 ng/mL

**Q.** What about the CL/F [19] of the same molecule?
**A.** 966 mL/min/kg

**Q.** What about the CC50 at 72 h [20] of the same molecule?
**A.** 126000 nM
